“And” between values parts separate entries of the source, which are not always exact repeats. Identical values can stand only once. Like-named read-outs stand apart in the source and are kept apart here.
Tests used:
[1] = Steady-state plasma pharmacokinetics; format: in vivo, human
[2] = single-agent enzastaurin 525 mg orally daily; cited from earlier work
metastatic NSCLC = details: single agent, second- or third-line; cited from earlier work
NSCLC = details: cited from earlier work
advanced NSCLC = advanced NSCLC progressed after first-line chemotherapy; cited from earlier work
[3] = 150 mg erlotinib daily with 250 mg enzastaurin, geometric mean (CV%), n 3
[4] = 150 mg erlotinib daily with 500 mg enzastaurin, geometric mean (CV%), n 11

Row | SMILES | C av,ss ([1]; enzastaurin 500 mg once daily with erlotinib 150 mg daily, geometric mean (CV%), N 12) | Tmax ([1]; human, plasma, oral) [h] | AUC ([1]; human, plasma, oral, AUCτ,ss, enzastaurin 500 mg once daily with erlotinib 150 mg daily, geometric mean (CV%), N 12) [µM·h] | Cmax ([1]; human, plasma, oral, C max,ss, enzastaurin 500 mg once daily with erlotinib 150 mg daily, geometric mean (CV%), N 12) [nM] | AUCτ,ss [2] | CLss/F [2] [L/h] | patients with prolonged stabilization >6 months (metastatic NSCLC) [%] | C av,ss [1, 3] | CLss/F [1, 3] | C av,ss [1, 4] | CLss/F [1, 4] | hazard ratio (overall survival vs placebo) (NSCLC; P < 0.001) | response rate (NSCLC; unselected population, vs placebo <1%, P < 0.001) [%] | overall survival (NSCLC; vs placebo 4.7 months) [months] | overall response rate (advanced NSCLC) [%]
1 | Cn1cc(C2=C(c3cn(C4CCN(Cc5ccccn5)CC4)c4ccccc34)C(=O)NC2=O)c2ccccc21 [Enzastaurin] | 750 (71) nmol/L | 4.04 | 18 | 1600 | 23,600 nmol × h/L | 40.3 | 11 | – | – | – | – | – | – | – | –
2 | C#Cc1cccc(Nc2ncnc3cc(OCCOC)c(OCCOC)cc23)c1 [erlotinib] | – | – | – | – | – | – | – | 1,030 (19) ng/mL | 6.07 L/h and 6.07 (19) L/h | 1,090 (45) ng/mL | 5.75 L/h and 5.75 (45) L/h | 0.70 | 8.9 | 6.7 | 6.2

Source: publication PMC3313020 (Cancer Chemotherapy and Pharmacology, 2011)
